In US5288723A, “A composition and a method of using veratridine and epinephrine as a local anesthetic” (priority 1991, dated 1994):
“Also recorded” adds a separate entry of the source. Where two headings read alike, the source gives them in different places.

How the values were obtained:
[1] = system: angiotensin II receptors; settings: reported by Ball et al.; cited from earlier work
[2] = system: A-fibers of rabbit vagus nerve; assay: Sucrose-gap recording in the veratrinized region, A-fibers; set-up: species or system New Zealand white rabbit
Description: (§1) Adult male New Zealand white rabbits (3±0.5 kg) were pretreated intramuscularly with a mixture of ketamine (200 mg), xylazine (20 mg) and atropine (0.4 mg) for sedation. Ten minutes after this treatment, the animals were anesthetized with diethyl ether. After cessation of respiration, a longitudinal skin incision was made, and the cervical portion of both vagus nerves was dissected. The vagus nerves were temporarily stored at room temperature (22° C.) in a beaker containing modified HEPES Liley (HL) solution stirred constantly by aeration with a mixture of 95% oxygen and 5% carbon dioxide. […]
(§2) VTD free base (no. V-5754, lot 58F-7828, Sigma, St. Louis, Mo.) was stored in a desiccator below 0° C. and was used to prepare a 2 mM stock solution in dimethyl sulfoxide [DMSO], Fisher Scientific, lot 861316), which also was stored at below 0° C. […] The maximum equivalent content of DMSO is 0.5%, and in three control experiments we detected no change in electrophysiologic behavior with 1% DMSO.
(§3) Nerves were desheathed and mounted in an acrylic sucrose-gap chamber (FIG. 2C). […] In contrast to the extracellular chamber described above, which measured APc in a drug-free segment after they had propagated through a VTD solution, the sucrose gap measured the behavior of the nerve membrane directly exposed to drug, the "veratrinized" nerve. […]

[3] = system: Na^+ channel of the mammalian brain; settings: purified polypeptides in phospholipid vesicles; cited from earlier work
[4] = system: C-fibers of rabbit vagus nerve; assay: Sucrose-gap recording in the veratrinized region, C-fibers; set-up: species or system New Zealand white rabbit
Description: (§4) Adult male New Zealand white rabbits (3±0.5 kg) were pretreated intramuscularly with a mixture of ketamine (200 mg), xylazine (20 mg) and atropine (0.4 mg) for sedation. Ten minutes after this treatment, the animals were anesthetized with diethyl ether. After cessation of respiration, a longitudinal skin incision was made, and the cervical portion of both vagus nerves was dissected. The vagus nerves were temporarily stored at room temperature (22° C.) in a beaker containing modified HEPES Liley (HL) solution stirred constantly by aeration with a mixture of 95% oxygen and 5% carbon dioxide.
(§5) The modified HL solution used for bathing the nerve and subsequent drug perfusion consisted of (in mM): NaCl, 118.0; KCl, 5.0; CaCl2 2H2 0, 2.0; MgCl2 6H2 0, 1.0; α-D(+)-glucose, 11.0; NaHC03, 25.0; and N-2-hydroxy-ethylpiperazine-N-2-ethanesulfonic acid (HEPES) buffer, 5.0 mM. The pH was adjusted to 7.4±0.05 by addition of 1 N NaOH. The perfusion solution was bubbled with a gas mixture of 95% oxygen and 5% carbon dioxide at a vigorous rate just before flowing onto the nerve. The pH was stabilized by the HEPES buffer and maintained at 7.4.
(§6) VTD free base (no. V-5754, lot 58F-7828, Sigma, St. Louis, Mo.) was stored in a desiccator below 0° C. and was used to prepare a 2 mM stock solution in dimethyl sulfoxide [DMSO], Fisher Scientific, lot 861316), which also was stored at below 0° C. VTD, a steroidal alkaloid (FIG. 2A) that is produced by certain lilies, has a solubility limited to approximately 10^-3 M in aqueous slat solutions [Kupchan and By, "The Veratrum Group," in Alkaloids, Vol. 10, Manske, R.H.F. (ed.), New York, Academic Press (1968), pp. 193-285]. The stock VTD solution was diluted to final concentrations of 0.2-10 μM by the addition of HL. The maximum equivalent content of DMSO is 0.5%, and in three control experiments we detected no change in electrophysiologic behavior with 1% DMSO.
Nerves were desheathed and mounted in an acrylic sucrose-gap chamber (FIG. 2C). We used a method after that described by Stampfli [Stampfli, R., Experientia 10:508-509 (1954); see also Rando et al., Mol. Pharmacol. 29:467-477 (1986)]. […] In contrast to the extracellular chamber described above, which measured APc in a drug-free segment after they had propagated through a VTD solution, the sucrose gap measured the behavior of the nerve membrane directly exposed to drug, the "veratrinized" nerve.
APc and the CRP were recorded with the same amplifier used for extracellular recording (see above), but passed both to the DC-coupled input of the storage oscilloscope (for APc) and to a strip-chart recorder (for CRP) (model 8376-20, Cole-Palmer). […]

[5] = system: B-fibers of rabbit vagus nerve; assay: Sucrose-gap recording in the veratrinized region, B-fibers; set-up: species or system New Zealand white rabbit; settings: 0.5 μm VTD
Description: as §1, §2, §3

[6] = system: A-fibers of rabbit vagus nerve; assay: Extracellular recording of compound action potentials (APc), desheathed vagus nerve, A-fibers; set-up: species or system New Zealand white rabbit; settings: for inhibition at 0.5 µM / activity at 0.5 µM: Oryctolagus cuniculus, 0.5 μM VTD; for inhibition at 0.5 µM: 1.25 h, mean ± SEM; for activity at 0.5 µM: read-out: Amplitude of single APc elevation relative to amplitude at beginning of VTD exposure
Description: as §4, §5, §6
The nerves were cleaned and desheathed by microdissection before mounting in an airtight chamber (FIG. 2B) [Gissen et al., Anesthesiology 53:467-474 (1980)]. Petroleum jelly (White Petrolatum, Denison Laboratories) seals separated a central, 11-mm length of the nerve from the lateral pools, used for stimulating and recording with electrodes made of platinum wire. The central section of the chamber (volume 0.25 ml) was perfused with HL solution at 0.5 ml.min.^-1. The lateral pools containing the moistened ends of the nerves adsorbed to the electrodes were filled with paraffin oil. The APc s were propagated over 21 mm, from the stimulating to the recording electrodes, with the proximal recording electrodc located 4.5 mm from the edge of the central, drug exposure chamber. Thus, measured APc s were conducted in nerve exposed to drug for half of the conduction pathway, and had been conducting through drug-free medium over a distance containing at least two or three nodes of Ranvier (in the fastest-conducting fibers), before reaching the recording electrodes.
The signal from the nerve was amplified 50 times (model AK 475 operational amplifier, Metametrics, Carlisle, Mass.) and passed to the oscilloscope preamplifiers (model 5A 22N, Tektronix). The preparation was not considered acceptable unless the APc signals from the nerve exceeded 1.5 mV for A-fibers, 0.5 mV for B-fibers, and 0.3 mV for C-fibers.
Each nerve was exposed to only one VTD concentration, and each concentration was tested in four or five separate nerves, except in tie sheathed nerves, for which only two nerves were used. The temperature was 20°-22° C.
The standard protocol used for testing the action of VTD was to record the APc elevations in control HL solution for 30-60 min. before adding VTD; for 60-75 min. during VTD application; and for 60-75 min. after replacement with VTD-free HL. […]

COc1ccc(C(=O)OC2CCC3(C)C4CCC5C6(O)CC(O)C7(O)C(CN8CC(C)CCC8C7(C)O)C6(O)CC53OC24O)cc1OC (stereo not drawn) [VTD, veratridine]
Inhibition of angiotensin II receptors [1]: selective inhibitor of angiotensin II receptors | A-fiber deflection between beginning and end of the train ([2]; 0.2 μM VTD, 0.5 Hz stimulation): unchanged | A-fiber elevation after addition of VTD ([2]; 0.5 μm VTD): unchanged | Sodium flux into vesicles in response [3]: sodium flux into these vesicles occurs | C-fiber elevation after addition of VTD ([4]; 0.5 μm VTD, single stimulus): unaffected | Time for development of VTD-induced depolarization (VID) after stimulation ([4]; 0.5 μm VTD, within about 100 ms): ≤ 100 ms | Decay halftime of VTD-induced depolarization (VID) ([4]; after 1 hr in 2.0 μm VTD): 3 to 4 s | Primary C-fiber elevations during cumulative VID ([4]; repetitive stimulation): much smaller than were the elevations induced by single stimuli; also recorded: selectively reduced | B-fiber elevation after addition of VTD [5]: unchanged | Response of A-fibers during repetitive stimulation compared with drug-free solutions ([6]; 2 μM VTD, 100-Hz stimulation): almost identical to that in drug-free solutions before and after VTD exposure | Single-stimulus APc after VTD compared with no-VTD controls ([6]; A-fibers, 0.5 μM, 60 min. in VTD, P>0.05): no significant difference | Decline of APc elevation at the second stimulation ([6]; A-fibers, 2 μM VTD, 100 Hz, normal refractory behavior): about 15% | Reversal of use-dependent depression by washing ([6]; A-fibers, VTD-free HL wash): did not reverse | inhibition at 0.5 µM ([6]; A-fibers, 100 Hz, after 75 min. in VTD, P < 0.001 vs control, read-out: Percent inhibition of the tenth APc in a train compared to the first, VTD): 25.3 ± 3.5% | inhibition at 0.5 µM ([6]; A-fibers, 100 Hz, after 75 min. of wash, read-out: Percent inhibition of the tenth APc in a train compared to the first, HL (Wash)): 27 ± 2.8% | activity at 0.5 µM ([6]; A-fibers, during VTD exposure): 117 ± 7% | activity at 0.5 µM ([6]; A-fibers, wash period): 123 ± 14% | Use-dependent reduction of APc by VTD, A-fibers ([6]; up to 2 μM): modified little; also recorded: inconsequential for A-fibers
